# Key:
# Settings in all cases: synthetic library passage 3, intravenous, relative to wild-type AAV9
# [1] = system: brain, spinal cord, and DRG of the NHPs; assay: NGS fold enrichment of synthetic library (passage 3) in NHPs, first cross-species screen; type: in vivo, cynomolgus macaques (Macaca fascicularis)
# Description: (§1) After creation of the synthetic library with the sub-selected variants, the synthetic library was screened (passage 3) in two NHPs (2-4 years of age) and two strains of mice, BALB/c (n=3, 6-8 weeks of age) and C57Bl/6 mice (n=3, 6-8 weeks of age), in a first cross-species evolution screen. The animals were injected intravenously with the synthetic library. After a period in vivo, (e.g., 28-days) RNA was extracted from nervous tissue, e.g., brain, spinal cord, and DRG of the NHPs and the brains of mice. Following RNA recovery and RT-PCR amplification, a systematic NGS enrichment analysis was performed, and the peptides comprised within the variants were identified and the capsid enrichment ratio for each variant compared to the wild-type AAV9 control was calculated (fold enrichment relative to wild-type AAV9) (Table 9). […] All animals were dosed intravenously at […] across the screen.
# brain [2] = assay: NGS fold enrichment of synthetic library (passage 3) in C57Bl/6 mice, first cross-species screen; type: in vivo
# Description: as §1
# brain [3] = assay: NGS fold enrichment of synthetic library (passage 3) in BALB/c mice, first cross-species screen; type: in vivo
# Description: as §1
# [4] = RNA from spinal cord of NHPs, NGS
# [5] = RNA from brain of C57Bl/6 mice, NGS
# [6] = RNA from brain of BALB/c mice, NGS
sequence,measurement,setting,value
GEVSRVLSGQNQQT,Fold enrichment over AAV9 in the brain of NHPs,"[1]; RNA from brain of NHPs, NGS",1.318 fold
same,Fold enrichment over AAV9 in the spinal cord of NHPs,[1]; [4],0.437 fold
same,Fold enrichment over AAV9 in the brain of Mice (C57Bl/6),brain [2]; [5],1.150 fold
same,Fold enrichment over AAV9 in the brain of Mice (BALB/c),brain [3]; [6],0.440 fold
GFAHQASSGQNQQT,Fold enrichment over AAV9 in the brain of NHPs,"[1]; RNA NGS, brain of NHPs",1.587 fold
same,Fold enrichment over AAV9 in the spinal cord of NHPs,"[1]; RNA NGS, spinal cord of NHPs",1.852 fold
same,Fold enrichment over AAV9 in the brain of Mice (C57Bl/6),"brain [2]; RNA NGS, brain of C57Bl/6 mice",1.638 fold
same,Fold enrichment over AAV9 in the brain of Mice (BALB/c),"brain [3]; RNA NGS, brain of BALB/c mice",1.080 fold
GFIFPKVSGQNQQT,Fold enrichment over AAV9 in the brain of NHPs,"[1]; RNA from brain of NHPs, NGS",1.237 fold
same,Fold enrichment over AAV9 in the spinal cord of NHPs,[1]; [4],0.000 fold
same,Fold enrichment over AAV9 in the brain of Mice (C57Bl/6),brain [2]; [5],1.764 fold
same,Fold enrichment over AAV9 in the brain of Mice (BALB/c),brain [3]; [6],0.692 fold
GFMSYKGSGQNQQT,Fold enrichment over AAV9 in the brain of NHPs,"[1]; RNA NGS, brain of NHPs",2.865 fold
same,Fold enrichment over AAV9 in the spinal cord of NHPs,"[1]; RNA NGS, spinal cord of NHPs",0.209 fold
same,Fold enrichment over AAV9 in the brain of Mice (C57Bl/6),"brain [2]; RNA NGS, brain of C57Bl/6 mice",1.808 fold
same,Fold enrichment over AAV9 in the brain of Mice (BALB/c),"brain [3]; RNA NGS, brain of BALB/c mice",0.569 fold
GFNGSPSSGQNQQT,Fold enrichment over AAV9 in the brain of NHPs,"[1]; RNA NGS, brain of NHPs",2.609 fold
same,Fold enrichment over AAV9 in the spinal cord of NHPs,"[1]; RNA NGS, spinal cord of NHPs",12.197 fold
same,Fold enrichment over AAV9 in the brain of Mice (C57Bl/6),"brain [2]; RNA NGS, brain of C57Bl/6 mice",2.338 fold
same,Fold enrichment over AAV9 in the brain of Mice (BALB/c),"brain [3]; RNA NGS, brain of BALB/c mice",0.924 fold
GFSSAVHSGQNQQT,Fold enrichment over AAV9 in the brain of NHPs,"[1]; RNA NGS, brain of NHPs",1.502 fold
same,Fold enrichment over AAV9 in the spinal cord of NHPs,"[1]; RNA NGS, spinal cord of NHPs",1.234 fold
same,Fold enrichment over AAV9 in the brain of Mice (C57Bl/6),"brain [2]; RNA NGS, brain of C57Bl/6 mice",0.218 fold
same,Fold enrichment over AAV9 in the brain of Mice (BALB/c),"brain [3]; RNA NGS, brain of BALB/c mice",0.210 fold
GGAGSAHSGQNQQT,Fold enrichment over AAV9 in the brain of NHPs,"[1]; RNA NGS, brain of NHPs",1.003 fold
same,Fold enrichment over AAV9 in the spinal cord of NHPs,"[1]; RNA NGS, spinal cord of NHPs",6.108 fold
same,Fold enrichment over AAV9 in the brain of Mice (C57Bl/6),"brain [2]; RNA NGS, brain of C57Bl/6 mice",0.474 fold
same,Fold enrichment over AAV9 in the brain of Mice (BALB/c),"brain [3]; RNA NGS, brain of BALB/c mice",1.092 fold
GGGDLGRSSQNQQT,Fold enrichment over AAV9 in the brain of NHPs,"[1]; RNA NGS, brain of NHPs",3.036 fold
same,Fold enrichment over AAV9 in the spinal cord of NHPs,"[1]; RNA NGS, spinal cord of NHPs",4.830 fold
same,Fold enrichment over AAV9 in the brain of Mice (C57Bl/6),"brain [2]; RNA NGS, brain of C57Bl/6 mice",0.916 fold
same,Fold enrichment over AAV9 in the brain of Mice (BALB/c),"brain [3]; RNA NGS, brain of BALB/c mice",0.539 fold
GGGPMAGSGQNQQT,Fold enrichment over AAV9 in the brain of NHPs,"[1]; RNA NGS, brain of NHPs",1.735 fold
same,Fold enrichment over AAV9 in the spinal cord of NHPs,"[1]; RNA NGS, spinal cord of NHPs",2.815 fold
same,Fold enrichment over AAV9 in the brain of Mice (C57Bl/6),"brain [2]; RNA NGS, brain of C57Bl/6 mice",1.049 fold
same,Fold enrichment over AAV9 in the brain of Mice (BALB/c),"brain [3]; RNA NGS, brain of BALB/c mice",0.372 fold
GGGTKMDSGQNQQT,Fold enrichment over AAV9 in the brain of NHPs,"[1]; RNA NGS, brain of NHPs",3.034 fold
same,Fold enrichment over AAV9 in the spinal cord of NHPs,"[1]; RNA NGS, spinal cord of NHPs",0.000 fold
same,Fold enrichment over AAV9 in the brain of Mice (C57Bl/6),"brain [2]; RNA NGS, brain of C57Bl/6 mice",0.733 fold
same,Fold enrichment over AAV9 in the brain of Mice (BALB/c),"brain [3]; RNA NGS, brain of BALB/c mice",0.297 fold
GGITWTDSGQNQQT,Fold enrichment over AAV9 in the brain of NHPs,"[1]; RNA NGS, brain of NHPs",1.462 fold
same,Fold enrichment over AAV9 in the spinal cord of NHPs,"[1]; RNA NGS, spinal cord of NHPs",4.535 fold
same,Fold enrichment over AAV9 in the brain of Mice (C57Bl/6),"brain [2]; RNA NGS, brain of C57Bl/6 mice",1.472 fold
same,Fold enrichment over AAV9 in the brain of Mice (BALB/c),"brain [3]; RNA NGS, brain of BALB/c mice",0.468 fold
GGLGSMSSGQNQQT,Fold enrichment over AAV9 in the brain of NHPs,"[1]; RNA NGS, brain of NHPs",2.812 fold
same,Fold enrichment over AAV9 in the spinal cord of NHPs,"[1]; RNA NGS, spinal cord of NHPs",1.405 fold
same,Fold enrichment over AAV9 in the brain of Mice (C57Bl/6),"brain [2]; RNA NGS, brain of C57Bl/6 mice",1.802 fold
same,Fold enrichment over AAV9 in the brain of Mice (BALB/c),"brain [3]; RNA NGS, brain of BALB/c mice",0.822 fold
GGLSHVMSGQNQQT,Fold enrichment over AAV9 in the brain of NHPs,"[1]; RNA NGS, brain of NHPs",1.875 fold
same,Fold enrichment over AAV9 in the spinal cord of NHPs,"[1]; RNA NGS, spinal cord of NHPs",0.403 fold
same,Fold enrichment over AAV9 in the brain of Mice (C57Bl/6),"brain [2]; RNA NGS, brain of C57Bl/6 mice",0.885 fold
same,Fold enrichment over AAV9 in the brain of Mice (BALB/c),"brain [3]; RNA NGS, brain of BALB/c mice",0.378 fold
GGQVAPSSGQNQQT,Fold enrichment over AAV9 in the brain of NHPs,"[1]; RNA NGS, brain of NHPs",2.581 fold
same,Fold enrichment over AAV9 in the spinal cord of NHPs,"[1]; RNA NGS, spinal cord of NHPs",2.427 fold
same,Fold enrichment over AAV9 in the brain of Mice (C57Bl/6),"brain [2]; RNA NGS, brain of C57Bl/6 mice",1.433 fold
same,Fold enrichment over AAV9 in the brain of Mice (BALB/c),"brain [3]; RNA NGS, brain of BALB/c mice",0.709 fold
GGRIVSLSGQNQQT,Fold enrichment over AAV9 in the brain of NHPs,"[1]; RNA NGS, brain of NHPs",1.766 fold
same,Fold enrichment over AAV9 in the spinal cord of NHPs,"[1]; RNA NGS, spinal cord of NHPs",4.936 fold
same,Fold enrichment over AAV9 in the brain of Mice (C57Bl/6),"brain [2]; RNA NGS, brain of C57Bl/6 mice",1.161 fold
same,Fold enrichment over AAV9 in the brain of Mice (BALB/c),"brain [3]; RNA NGS, brain of BALB/c mice",0.847 fold
GGRNGHTVGQNQQT,Fold enrichment over AAV9 in the brain of NHPs,"[1]; RNA NGS, brain of NHPs",2.965 fold
same,Fold enrichment over AAV9 in the spinal cord of NHPs,"[1]; RNA NGS, spinal cord of NHPs",3.732 fold
same,Fold enrichment over AAV9 in the brain of Mice (C57Bl/6),"brain [2]; RNA NGS, brain of C57Bl/6 mice",1.105 fold
same,Fold enrichment over AAV9 in the brain of Mice (BALB/c),"brain [3]; RNA NGS, brain of BALB/c mice",1.003 fold
